EP2396020B1, “NOVEL ANTIMICROBIAL PEPTIDES” (Institute Of Organic Chemistry And Biochemistry As CR, …, priority 2009, dated 2010)
Peptide text beside a SMILES is read from it.

Experiments:
Pseudomonnas aeruginosa = conditions: LB broth, 37°C, 20 h
Description: (§2) Antimicrobial activity was determined as a quantitative minimum inhibitory concentration (MIC) by observing bacterial growth in the presence of different concentrations of tested peptides. Mid-exponential phase bacteria were added to the solutions of the tested antimicrobial peptide at different concentrations (0.5 to 100 µM) in LB broth in multi-well plates. The plates were incubated at 37°C for 20 h while being continuously shaken in a Bioscreen C instrument (Finland). The absorbance was measured at 540 nm every 15 min and each peptide was tested at least 3 times in duplicate. In the experiments was routinely used 1.2 10^3 - 7.5 10^3 CFU of bacteria. Tetracycline in a concentration range of 0.1 - 50 µM was tested as a standard.

[1] = Determination of hemolytic activity; format: cell-based; conditions: rat red blood cells (5% suspension), 1 h at 37°C, physiological solution, read-out: hemolytic activity LC50
Description: (§1) The peptides in the concentration (1-200 µM) were incubated with rat red blood cells (5%) for 1 h at 37°C in a physiological solution at a final volume of 0.2 ml The samples were then centrifuged for 5 min at 250 g, and the absorbance of the supernatant was determined at 540 nm. Supernatants of red blood cells suspended in physiological solution and in 0.2% TRITON X100 in physiological solution served as controls for zero hemolysis (blank) and 100% hemolysis, respectively.

Bacillus subtilis = conditions: LB broth, 37°C, 20 h
Description: as §2

Staphylococcus aureus = conditions: LB broth, 37°C, 20 h
Description: as §2

Escherichia coli = conditions: LB broth, 37°C, 20 h
Description: as §2

rat red blood cells = test: Determination of hemolytic activity; format: cell-based; conditions: rat red blood cells (5%), 1 h at 37°C, physiological solution
Description: as §1

| SMILES | antimicrobial activity MIC P.a. (Pseudomonnas aeruginosa) | HC50 at 1 h [1] [µM] | antimicrobial activity MIC B.s. (Bacillus subtilis) | antimicrobial activity MIC S.a. (Staphylococcus aureus) | antimicrobial activity MIC E. c. (Escherichia coli) | hemolytic activity LC50 (rat red blood cells) |
| --- | --- | --- | --- | --- | --- | --- |
| CC[C@H](C)[C@H](NC(=O)[C@H](CC(C)C)NC(=O)[C@H](Cc1c[nH]cn1)NC(=O)CNC(=O)[C@H](CC(C)C)NC(=O)[C@@H](NC(=O)[C@H](CCCCN)NC(=O)[C@H](CO)NC(=O)[C@H](Cc1c[nH]c2ccccc12)NC(=O)[C@H](CCSC)NC(=O)CN)[C@@H](C)CC)C(=O)N[C@@H](CCCNC(=N)N)C(N)=O [(1), H-Gly-Met-Trp-Ser-Lys-Ile-Leu-Gly-His-Leu-Ile-Arg-NH2] (H-GMWSKILGHLIR-NH2) | 45 µM | 80 | 0,7 µM | 7,4 µM | 3,8 µM |  |
| CC[C@H](C)[C@H](NC(=O)[C@H](CC(C)C)NC(=O)[C@H](Cc1c[nH]cn1)NC(=O)CNC(=O)[C@H](CC(C)C)NC(=O)[C@@H](NC(=O)[C@H](CCCCN)NC(=O)[C@H](CCCCN)NC(=O)[C@H](Cc1c[nH]c2ccccc12)NC(=O)[C@H](CCSC)NC(=O)CN)[C@@H](C)CC)C(=O)N[C@@H](CCCNC(=N)N)C(N)=O [(1-A/1), H-Gly-Met-Trp-Lys-Lys-Ile-Leu-Gly-His-Leu-Ile-Arg-NH2] (H-GMWKKILGHLIR-NH2) | 12,5 µM | 93 | 1,1 µM | 6,0 µM | 1,8 µM |  |
| CC[C@H](C)[C@H](NC(=O)[C@H](CCCCN)NC(=O)[C@H](CO)NC(=O)[C@H](Cc1c[nH]c2ccccc12)NC(=O)[C@H](CCSC)NC(=O)CN)C(=O)N[C@@H](CC(C)C)C(=O)NCC(=O)N[C@@H](Cc1c[nH]cn1)C(=O)N[C@@H](CC(C)C)C(=O)N[C@@H](CCCCN)C(=O)N[C@@H](CCCNC(=N)N)C(N)=O [(1-A/2), H-Gly-Met-Trp-Ser-Lys-Ile-Leu-Gly-His-Leu-Lys-Arg-NH2] (H-GMWSKILGHLKR-NH2) | 90 µM | > 200 | 2,2 µM | 100 µM | 28 µM |  |
| CC[C@H](C)[C@H](NC(=O)[C@H](CC(C)C)NC(=O)[C@H](Cc1c[nH]cn1)NC(=O)CNC(=O)[C@H](CC(C)C)NC(=O)[C@@H](NC(=O)[C@H](CCCCN)NC(=O)[C@H](CO)NC(=O)[C@H](Cc1c[nH]c2ccccc12)NC(=O)[C@H](CCSC)NC(=O)CN)[C@@H](C)CC)C(=O)N[C@@H](CCCCN)C(N)=O [(1-A/3), H-Gly-Met-Trp-Ser-Lys-Ile-Leu-Gly-His-Leu-Ile-Lys-NH2] (H-GMWSKILGHLIK-NH2) | 50 µM | 111 | 0,75 µM | 12,5 µM | 6.0 µM |  |
| CC[C@H](C)[C@H](NC(=O)[C@H](CC(C)C)NC(=O)[C@H](CCCCN)NC(=O)CNC(=O)[C@H](CC(C)C)NC(=O)[C@@H](NC(=O)[C@H](CCCCN)NC(=O)[C@H](CCCCN)NC(=O)[C@H](Cc1c[nH]c2ccccc12)NC(=O)[C@H](CCCCN)NC(=O)CN)[C@@H](C)CC)C(=O)N[C@@H](CCCNC(=N)N)C(N)=O [(1-A/4), H-Gly-Lys-Trp-Lys-Lys-Ile-Leu-Gly-Lys-Leu-Ile-Arg-NH2] (H-GKWKKILGKLIR-NH2) | 14,2 µM | > 200 | 1,3 µM | 60,0 µM | 1,8 µM |  |
| CC[C@H](C)[C@H](NC(=O)[C@H](Cc1c[nH]cn1)NC(=O)[C@H](CCCCN)NC(=O)[C@H](CC(C)C)NC(=O)[C@H](CC(C)C)NC(=O)[C@H](CO)NC(=O)[C@H](CCSC)NC(=O)[C@H](Cc1c[nH]c2ccccc12)NC(=O)[C@H](CCCCN)NC(=O)CN)C(=O)N[C@@H](CC(C)C)C(=O)N[C@@H](CCCCN)C(N)=O [(2), H-Gly-Lys-Trp-Met-Ser-Leu-Leu-Lys-His-Ile-Leu-Lys-NH2] (H-GKWMSLLKHILK-NH2) | 33 µM | 80 | 0,8 µM | 7,5 µM | 2,2 µM |  |
| CC[C@H](C)[C@H](NC(=O)[C@H](Cc1c[nH]cn1)NC(=O)[C@H](CCCCN)NC(=O)[C@H](CC(C)C)NC(=O)[C@H](CC(C)C)NC(=O)[C@H](CO)NC(=O)[C@H](CCCCN)NC(=O)[C@H](Cc1c[nH]c2ccccc12)NC(=O)[C@H](CCCCN)NC(=O)CN)C(=O)N[C@@H](CC(C)C)C(=O)N[C@@H](CCCCN)C(N)=O [(2-A/1), H-Gly-Lys-Trp-Lys-Ser-Leu-Leu-Lys-His-Ile-Leu-Lys-NH2] (H-GKWKSLLKHILK-NH2) | 12,5 µM | 95 | 1,5 µM | 25 µM | 3 µM |  |
| CC[C@H](C)[C@H](NC(=O)[C@H](Cc1c[nH]cn1)NC(=O)[C@H](CCCCN)NC(=O)[C@H](CC(C)C)NC(=O)[C@H](CC(C)C)NC(=O)[C@H](CCCCN)NC(=O)[C@H](CCSC)NC(=O)[C@H](Cc1c[nH]c2ccccc12)NC(=O)[C@H](CCCCN)NC(=O)CN)C(=O)N[C@@H](CC(C)C)C(=O)N[C@@H](CCCCN)C(N)=O [(2-A/2), H-Gly-Lys-Trp-Met-Lys-Leu-Leu-Lys-His-Ile-Leu-Lys-NH2] (H-GKWMKLLKHILK-NH2) | 10,7 µM |  | 0,8 µM | 4,5 µM | 2,5 µM | 87,5 µM |
| CC[C@H](C)[C@H](NC(=O)[C@H](CCCCN)NC(=O)[C@H](CCCCN)NC(=O)[C@H](CC(C)C)NC(=O)[C@H](CC(C)C)NC(=O)[C@H](CO)NC(=O)[C@H](CCSC)NC(=O)[C@H](Cc1c[nH]c2ccccc12)NC(=O)[C@H](CCCCN)NC(=O)CN)C(=O)N[C@@H](CC(C)C)C(=O)N[C@@H](CCCCN)C(N)=O [(2-A/3), H-Gly-Lys-Trp-Met-Ser-Leu-Leu-Lys-Lys-Ile-Leu-Lys-NH2] (H-GKWMSLLKKILK-NH2) | 13,8 µM | 126 | 1,2 µM | 6,3 µM | 2,7 µM |  |
